Where two headings read alike, the source gives them in different places.
Tests used:
Btα1/Btα8/Btβ1 nAChR = molecular target: T1, Btα1/Btα8/Btβ1 nAChR (Bombus terrestris, UniProt A0A9B0BGM1+A0A9B0F4H3+A0A9B2JDZ7); test: cell-based; design: species or system Xenopus laevis oocytes; conditions: Oocyte
T1 sequence (A0A9B0F4H3 44-615): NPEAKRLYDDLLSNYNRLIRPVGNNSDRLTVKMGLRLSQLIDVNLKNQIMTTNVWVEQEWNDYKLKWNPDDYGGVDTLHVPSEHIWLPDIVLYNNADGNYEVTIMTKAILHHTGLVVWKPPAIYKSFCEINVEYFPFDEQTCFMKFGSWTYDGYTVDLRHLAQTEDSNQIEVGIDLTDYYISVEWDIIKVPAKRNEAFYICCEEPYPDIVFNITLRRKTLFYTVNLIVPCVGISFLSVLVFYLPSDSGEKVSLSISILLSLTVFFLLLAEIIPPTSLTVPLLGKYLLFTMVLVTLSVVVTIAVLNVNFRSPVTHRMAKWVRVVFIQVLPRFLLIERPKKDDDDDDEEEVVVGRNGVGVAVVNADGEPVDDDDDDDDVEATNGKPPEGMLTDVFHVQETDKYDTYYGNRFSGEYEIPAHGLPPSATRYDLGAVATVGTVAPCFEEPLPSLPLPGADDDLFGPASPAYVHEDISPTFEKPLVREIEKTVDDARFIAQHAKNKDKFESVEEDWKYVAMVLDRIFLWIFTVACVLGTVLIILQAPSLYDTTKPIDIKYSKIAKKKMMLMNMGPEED
T1 sequence (A0A9B2JDZ7 22-535): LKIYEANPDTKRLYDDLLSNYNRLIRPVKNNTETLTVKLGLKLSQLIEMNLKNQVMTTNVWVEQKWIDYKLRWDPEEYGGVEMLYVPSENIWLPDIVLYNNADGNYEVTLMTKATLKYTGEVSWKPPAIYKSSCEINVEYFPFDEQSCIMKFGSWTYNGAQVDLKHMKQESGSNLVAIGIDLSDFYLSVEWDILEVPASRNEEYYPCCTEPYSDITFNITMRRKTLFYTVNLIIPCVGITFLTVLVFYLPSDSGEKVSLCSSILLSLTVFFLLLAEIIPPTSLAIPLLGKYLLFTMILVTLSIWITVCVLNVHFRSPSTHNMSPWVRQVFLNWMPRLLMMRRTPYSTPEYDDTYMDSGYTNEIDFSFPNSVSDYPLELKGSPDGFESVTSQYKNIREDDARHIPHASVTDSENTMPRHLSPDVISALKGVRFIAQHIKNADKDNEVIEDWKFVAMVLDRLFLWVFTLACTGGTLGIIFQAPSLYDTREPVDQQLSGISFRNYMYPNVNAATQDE
T1 sequence (A0A9B0BGM1 19-519): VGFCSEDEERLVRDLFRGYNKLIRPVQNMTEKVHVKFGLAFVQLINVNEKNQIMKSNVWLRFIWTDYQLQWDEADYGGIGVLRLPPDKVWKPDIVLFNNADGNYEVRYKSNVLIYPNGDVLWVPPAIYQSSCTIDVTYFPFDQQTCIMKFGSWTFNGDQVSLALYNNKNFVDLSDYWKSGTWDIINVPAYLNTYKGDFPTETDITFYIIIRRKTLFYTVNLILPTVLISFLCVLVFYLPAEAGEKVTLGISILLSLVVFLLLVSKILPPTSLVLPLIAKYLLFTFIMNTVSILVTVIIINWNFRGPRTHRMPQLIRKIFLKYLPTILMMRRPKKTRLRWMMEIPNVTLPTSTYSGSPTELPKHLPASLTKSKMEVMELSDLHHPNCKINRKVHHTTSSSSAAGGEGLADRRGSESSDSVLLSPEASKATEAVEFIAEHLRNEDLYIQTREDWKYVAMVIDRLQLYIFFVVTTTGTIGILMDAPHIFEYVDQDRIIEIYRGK

[1] = molecular target: Amα1/Amα2/Amα8/Amβ1 nAChR (Apis mellifera, UniProt A0A7M7MMZ9+A0A8U0WQ70+A0A8U0WQC0+A0A8U0WQD1); test: two-electrode voltage clamp of Xenopus oocytes, agonist concentration-response; format: cell-based
Chain of Amα1/Amα2/Amα8/Amβ1 nAChR (A0A7M7MMZ9 44-627): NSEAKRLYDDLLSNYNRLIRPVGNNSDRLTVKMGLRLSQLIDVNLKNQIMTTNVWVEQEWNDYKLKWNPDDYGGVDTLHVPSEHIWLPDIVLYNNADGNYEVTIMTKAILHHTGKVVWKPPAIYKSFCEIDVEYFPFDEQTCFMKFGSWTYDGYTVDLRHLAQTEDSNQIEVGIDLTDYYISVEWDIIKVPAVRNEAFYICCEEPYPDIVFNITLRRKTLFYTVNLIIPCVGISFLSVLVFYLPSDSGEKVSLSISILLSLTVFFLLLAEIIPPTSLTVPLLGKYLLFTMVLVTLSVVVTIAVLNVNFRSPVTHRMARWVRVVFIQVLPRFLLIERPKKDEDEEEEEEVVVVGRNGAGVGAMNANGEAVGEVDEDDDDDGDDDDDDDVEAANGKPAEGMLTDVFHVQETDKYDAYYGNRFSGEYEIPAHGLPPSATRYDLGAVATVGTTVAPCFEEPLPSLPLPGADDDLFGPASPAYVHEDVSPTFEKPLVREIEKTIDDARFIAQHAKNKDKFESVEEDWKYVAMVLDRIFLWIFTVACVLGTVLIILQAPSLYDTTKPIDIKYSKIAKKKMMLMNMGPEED
Chain of Amα1/Amα2/Amα8/Amβ1 nAChR (A0A8U0WQD1 18-541): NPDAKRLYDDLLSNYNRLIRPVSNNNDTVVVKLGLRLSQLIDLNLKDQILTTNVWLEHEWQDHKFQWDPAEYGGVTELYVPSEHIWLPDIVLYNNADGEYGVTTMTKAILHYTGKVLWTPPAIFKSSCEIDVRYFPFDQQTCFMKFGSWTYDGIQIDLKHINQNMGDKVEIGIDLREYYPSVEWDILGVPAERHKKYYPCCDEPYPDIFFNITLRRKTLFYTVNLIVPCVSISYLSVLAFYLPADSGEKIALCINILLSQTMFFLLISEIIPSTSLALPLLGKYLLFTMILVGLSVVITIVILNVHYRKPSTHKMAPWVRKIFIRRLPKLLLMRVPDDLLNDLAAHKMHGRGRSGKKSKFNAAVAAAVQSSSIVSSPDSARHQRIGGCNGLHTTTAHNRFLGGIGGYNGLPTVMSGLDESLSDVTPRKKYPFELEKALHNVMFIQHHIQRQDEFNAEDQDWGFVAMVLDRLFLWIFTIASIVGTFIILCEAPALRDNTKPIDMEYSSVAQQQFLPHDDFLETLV
Chain of Amα1/Amα2/Amα8/Amβ1 nAChR (A0A8U0WQ70 25-537): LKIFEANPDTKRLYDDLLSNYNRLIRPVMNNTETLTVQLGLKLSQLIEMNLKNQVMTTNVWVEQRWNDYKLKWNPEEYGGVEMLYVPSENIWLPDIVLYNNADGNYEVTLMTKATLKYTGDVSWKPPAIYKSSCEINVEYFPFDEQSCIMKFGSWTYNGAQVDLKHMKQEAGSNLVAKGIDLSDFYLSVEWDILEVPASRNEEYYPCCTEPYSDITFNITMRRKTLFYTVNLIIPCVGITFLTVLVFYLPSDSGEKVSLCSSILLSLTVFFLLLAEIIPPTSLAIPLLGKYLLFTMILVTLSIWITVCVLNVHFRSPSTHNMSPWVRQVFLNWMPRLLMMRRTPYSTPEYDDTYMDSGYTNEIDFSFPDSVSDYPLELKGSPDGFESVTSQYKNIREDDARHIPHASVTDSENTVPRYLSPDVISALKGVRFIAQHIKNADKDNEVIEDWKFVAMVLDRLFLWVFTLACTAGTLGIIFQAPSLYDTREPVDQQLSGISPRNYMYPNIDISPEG
Chain of Amα1/Amα2/Amα8/Amβ1 nAChR (A0A8U0WQC0 25-520): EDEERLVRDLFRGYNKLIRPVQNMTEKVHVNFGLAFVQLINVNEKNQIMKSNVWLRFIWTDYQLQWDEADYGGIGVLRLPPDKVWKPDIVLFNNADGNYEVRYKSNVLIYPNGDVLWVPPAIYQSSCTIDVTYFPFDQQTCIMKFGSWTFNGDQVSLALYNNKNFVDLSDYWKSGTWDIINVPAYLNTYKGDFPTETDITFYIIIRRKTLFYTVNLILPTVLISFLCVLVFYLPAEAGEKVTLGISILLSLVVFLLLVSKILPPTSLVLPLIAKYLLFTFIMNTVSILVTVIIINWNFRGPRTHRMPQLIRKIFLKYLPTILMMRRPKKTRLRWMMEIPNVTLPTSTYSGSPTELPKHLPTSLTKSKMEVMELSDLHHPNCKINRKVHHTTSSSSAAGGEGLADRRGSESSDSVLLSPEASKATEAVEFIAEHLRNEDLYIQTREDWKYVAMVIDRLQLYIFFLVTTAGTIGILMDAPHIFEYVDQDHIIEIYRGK

For CN/C(=N\[N+](=O)[O-])NCc1cnc(Cl)s1 [clothianidin], the Emax (Btα1/Btα8/Btβ1 nAChR; read-out: Clothianidin / Imax) was 75.9 ± 1.8% and the EC50 [1] was 8.13 nM.

With N#C/N=C1\SCCN1Cc1ccc(Cl)nc1 [thiacloprid] the Emax (Btα1/Btα8/Btβ1 nAChR; read-out: Thiacloprid / Imax) was 9.4 ± 0.8% and the EC50 [1] was 6.92 nM.

Work on O=[N+]([O-])NC1=NCCN1Cc1ccc(Cl)nc1 [imidacloprid] yielded an Emax (Btα1/Btα8/Btβ1 nAChR; read-out: Imidacloprid / Imax) of 10.7 ± 1% and an EC50 [1] of 33.1 nM.

Source: article PMC7368294 (Proceedings of the National Academy of Sciences of the …, 2020)
